Series [1] concerns the target T1, QPCT (Homo sapiens, UniProt Q16769).
T1 construct: purchased Origine (OriGene) TP700028
Description: Assay A: biochemical QPCT activity assay (MALDI-TOF MS, CD47 peptide substrate). The settings on record: 0.5 nM enzyme, 20 μM CD47 peptide substrate; read-out: Inhibition of QPCT: IC50. As for the experimental part:
(§1) QPCT or QPCTL dependent conversion of N-terminal glutamine to pyroglutamate of CD47 was monitored via MALDI-TOF MS. Test compounds were dissolved in 100% DMSO and serially diluted into clear 1,536-well microtiter plates. […] The plates were incubated for 10 min in a humidified incubator at 24° C. Subsequently, 2.5 μL of CD47 peptide substrate surrogate (^19[…]^33) was added to each well (final concentration: 10 μM for QPCTL/20 μM for QPCT). […] The plates were sealed with an adhesive foil, mixed for 30 s at 1,000 rpm and stored at room temperature until preparation of the MALDI target plates. MALDI target plates were prepared as described previously. […] QPCT or QPCTL activity was monitored by calculating the ratio between product and internal standard signals followed by normalization to high (100% activity) and low (0% activity) controls. Determination of compound potencies was obtained by fitting the dose-response data to a four-parameter logistical equation.

For series [2], the system named is SIRPα signalling induced by Raji cells. Description: Assay B: SIRPα signalling assay using Raji cells. Type of series: cell-based. The settings on record: Homo sapiens, 48 h compound incubation, Jurkat PathHunter SIRPαV1 reporter cells, read-out: Inhibition of SIRPα signalling induced by Raji cells: IC50. The protocol:
(§2) Two cell types are independently used: the Raji cell line (lymphoblast-like human cell line derived from B lymphocytes from a Burkitt's lymphoma patient in 1963) and A549 cells (adenocarcinomic human alveolar basal epithelial cells).
(§3) Test compounds were dissolved in 100% DMSO and serially diluted into a white 384-well microtiter cell culture plate (PerkinElmer #60076780 in case of Raji assay; PDL-coated plates Greiner #781945 in case of A549 assay). 5000 Raji cells (ATCC #CC86) or 5000 A549 cells (ATCC #CCL-185) in Assay Complete Cell Plating reagent 30 (DiscoverX 93-0563R30B) were added per well. The assay plate was incubated for 48 h at 37° C., 95% humidity and 5% CO2. 15000 reporter cells (Jurkat PathHunter SIRPαV1, DiscoverX #93-1135C19) were added to each well, and the plate was incubated for 5 h at 37° C., 95% humidity and 5% CO2. Bioassay reagent 1 of the PathHunter Bioassay detection kit (DiscoverX 93-0001) was added to each well of the plate using a multichannel pipette followed by a 15 min incubation at room temperature. Afterwards bioassay reagent 2 was added followed by […] incubation at room temperature (incubation in the dark). The analysis of the data was performed using the luminescence signal generated by beta-galactosidase in the PathHunter reporter cell line. The luminescence measurement was done using a Pherastar Multi-Mode Reader. Dose-response curves & IC50 data were calculated with 4-parameter sigmoidal dose response formula.

Series [3] concerns SIRPα signalling induced by A549 cells. In words: Assay B: SIRPα signalling assay using A549 cells. The conditions noted are these: Homo sapiens, 48 h compound incubation, Jurkat PathHunter SIRPαV1 reporter cells, read-out: Inhibition of SIRPα signalling induced by A549 cells: IC50. Type of series: cell-based. The protocol: as §2, §3
Series [4] can be described thus: Assay C: permeability in CACO-2 cells. The conditions noted are these: human, pH 7.2; for efflux ratio: Caco-2, Permeability B-A/Permeability A-B; for Papp A→B: Caco-2, apical to basolateral. Type of series: in vitro ADME. As for the experimental part: Caco-2 cells (1−2×10^5 cells/1 cm^2 area) are seeded on filter inserts (Costar transwell polycarbonate or PET filters, 0.4 µm pore size) and cultured (DMEM) for 10 to 25 days. Compounds are dissolved in appropriate solvent (like DMSO, 1-20 mM stock solutions). […] The transport solution (TL) is applied to the apical or basolateral donor side for measuring A-B or B-A permeability (3 filter replicates), respectively. Samples are collected at the start and end of experiment from the donor and at various time intervals for up to 2 hours also from the receiver side for concentration measurement by HPLC-MS/MS or scintillation counting. Sampled receiver volumes are replaced with fresh receiver solution. Efflux Ratio (ER)=Permeability B-A/Permeability A-B

The target of series [5] is T2, QPCTL (Homo sapiens, UniProt Q9NXS2).
T2 construct: made in house
T2 sequence (Q9NXS2 whole entry): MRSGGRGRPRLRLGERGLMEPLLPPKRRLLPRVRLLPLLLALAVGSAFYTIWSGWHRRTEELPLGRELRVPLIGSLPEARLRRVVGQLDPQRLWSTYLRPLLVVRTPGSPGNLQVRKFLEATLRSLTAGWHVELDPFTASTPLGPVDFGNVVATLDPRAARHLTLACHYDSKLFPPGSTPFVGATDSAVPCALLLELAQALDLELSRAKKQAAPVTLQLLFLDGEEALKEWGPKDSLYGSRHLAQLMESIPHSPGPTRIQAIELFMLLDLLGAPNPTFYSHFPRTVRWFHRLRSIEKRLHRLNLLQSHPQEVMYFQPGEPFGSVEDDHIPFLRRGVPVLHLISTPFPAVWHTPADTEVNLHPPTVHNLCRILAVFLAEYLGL
In words: Assay A: biochemical QPCTL activity assay (MALDI-TOF MS, CD47 peptide substrate). The settings on record: 0.5 nM enzyme, 10 μM CD47 peptide substrate; read-out: Inhibition of QPCTL: IC50. As for the experimental part:
as §1

T1 sequence (Q16769 29-361): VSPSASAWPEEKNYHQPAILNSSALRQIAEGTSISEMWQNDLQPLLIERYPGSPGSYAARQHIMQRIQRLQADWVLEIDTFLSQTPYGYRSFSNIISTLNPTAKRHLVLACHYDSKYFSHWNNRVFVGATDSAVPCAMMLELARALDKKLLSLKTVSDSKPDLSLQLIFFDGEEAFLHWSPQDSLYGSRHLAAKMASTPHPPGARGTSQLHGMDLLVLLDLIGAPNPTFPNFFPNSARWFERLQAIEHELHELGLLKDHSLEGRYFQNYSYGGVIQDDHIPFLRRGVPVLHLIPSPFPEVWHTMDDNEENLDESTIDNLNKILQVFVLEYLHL

On to `Cn1cnnc1C1(F)CCN(c2c(C#N)cc(C(C)(C)O)nc2-c2ccc(F)nc2)CC1` [Example 1], for which the IC50 came to 3 nM in series [1], 77 nM in series [2], 41 nM in series [3] and 2 nM in series [5]. Further, the efflux ratio in series [4] stood at 6.3. Besides, in series [4], the Papp A→B is 8.7 ×10⁻⁶ cm/s.
Turning to `Cn1cnnc1C1(F)CCN(c2c(C#N)cc(C(C)(C)O)nc2-c2cnc3nn(C(C)(C)C)c(Cl)c3c2)CC1` [Example 2], the IC50 in series [2] amounted to 20 nM; in series [3], 40 nM. Further, in series [4], the Papp A→B is 4.5 ×10⁻⁶ cm/s.
In the case of `Cn1cnnc1C1(F)CCN(c2c(C#N)cc(C3CC3(F)F)nc2-c2ccc(F)nc2)CC1` (stereo not shown) [Example 3], the IC50 in series [1] worked out at 4 nM; in series [2], 131 nM; in series [3], 40 nM; in series [5], 1 nM. In addition, the efflux ratio in series [4] was 1.3. In series [4], this compound yielded a Papp A→B of 47 ×10⁻⁶ cm/s.
For the compound `Cn1cnnc1C1(F)CCN(c2c(C#N)cc(C3CC3(F)F)nc2-c2cnc3nn(C(C)(C)C)cc3c2)CC1` (stereo not shown) [Example 4], the results for the IC50 in series [2] and in series [3] were 15 nM and 17 nM, respectively. In series [4], this compound came in with a Papp A→B of 8.8 ×10⁻⁶ cm/s.
For the compound `COc1cc(C#N)c(N2CCC(F)(c3nncn3C)CC2)c(-c2ccc(F)nc2)n1` [Example 5], the IC50 is 9 nM in series [1], 617 nM in series [2], 60 nM in series [3] and 4 nM in series [5]. Further, in series [4], the efflux ratio turned out to be 1.6. In series [4], this compound registered a Papp A→B of 27 ×10⁻⁶ cm/s.
Regarding `COc1cnc(-c2ccc(F)nc2)c(N2CCC(F)(c3nncn3C)CC2)c1C#N` [Example 7], the IC50 is 12 nM in series [1], 568 nM in series [2], 200 nM in series [3] and 8 nM in series [5]. For the same compound, the efflux ratio in series [4] is 5.5. The same compound gave a Papp A→B in series [4] of 15 ×10⁻⁶ cm/s.
`Cn1cnnc1C1(F)CCN(c2c(C#N)ccnc2-c2cnc(F)c(N)c2)CC1` [Example 9]: the IC50 stood at 4 nM in series [1], 103 nM in series [2], 39 nM in series [3] and 2 nM in series [5]. Moreover, the efflux ratio in series [4] stood at 4.5. For the same compound, the Papp A→B in series [4] came out at 5.8 ×10⁻⁶ cm/s.
In the case of `COCCOc1ncc(-c2nccc(C#N)c2N2CCC(F)(c3nncn3C)CC2)cn1` [Example 10], the IC50 is 30 nM in series [1], 536 nM in series [2], 283 nM in series [3] and 8 nM in series [5]. Moreover, the efflux ratio in series [4] was 13.1. The compound also came in with a Papp A→B in series [4] of 1.6 ×10⁻⁶ cm/s.
Consider `Cn1cnnc1C1(F)CCN(c2c(C#N)ccnc2-c2cncc(-c3ncco3)c2)CC1` [Example 11], for which the IC50 amounted to 48 nM in series [1], 1170 nM in series [2], 419 nM in series [3] and 13 nM in series [5]. In series [4], the efflux ratio worked out at 5. The compound also returned a Papp A→B in series [4] of 13 ×10⁻⁶ cm/s.
For `Cn1cnnc1C1(F)CCN(c2c(C#N)ccnc2-c2cnc3nn(Cc4ccccc4)nc3c2)CC1` [Example 12], the IC50 was 4 nM in series [1], 150 nM in series [2], 45 nM in series [3] and 3 nM in series [5]. In addition, the efflux ratio in series [4] came out at 9.9. This compound registered a Papp A→B in series [4] of 9.4 ×10⁻⁶ cm/s.
Turning to `Cn1cnnc1C1(F)CCN(c2c(C#N)ccnc2-c2cnc3nn(Cc4ccc(C(F)(F)F)nc4)nc3c2)CC1` [Example 13], the IC50 in series [1] came to 24 nM; in series [2], 596 nM; in series [3], 358 nM; in series [5] it was 8 nM. In addition, in series [4], the efflux ratio is 9. Further, the Papp A→B in series [4] turned out to be 6.2 ×10⁻⁶ cm/s.
Regarding `Cn1cnnc1C1(F)CCN(c2c(C#N)ccnc2-c2cnc3nnn(Cc4ccc(C(F)(F)F)nc4)c3c2)CC1` [Example 14], the IC50 in series [1] came to 11 nM; in series [2], 673 nM; in series [3] it was 202 nM; in series [5], 3 nM. In addition, the efflux ratio in series [4] stood at 32.8. The Papp A→B in series [4] came to 0.7 ×10⁻⁶ cm/s.
Turning to `Cn1cnnc1C1(F)CCN(c2c(C#N)cc(C(F)(F)F)nc2-c2cnc3occc3c2)CC1` [Example 15], the IC50 was found to be 58 nM in series [1], 296 nM in series [2], 410 nM in series [3] and 15 nM in series [5]. For the same compound, the efflux ratio in series [4] was 1.6. This compound registered a Papp A→B in series [4] of 47 ×10⁻⁶ cm/s.
As for `Cn1cnnc1C1(F)CCN(c2c(C#N)cc(C(F)(F)F)nc2-c2cnc3nc(C(C)(C)C)oc3c2)CC1` [Example 16], the IC50 in series [2] came out at 27 nM; in series [3] it was 32 nM. Also, the Papp A→B in series [4] was determined as 33 ×10⁻⁶ cm/s.
As for `Cn1cnnc1C1(F)CCN(c2c(C#N)ccnc2-c2cnn3nc(-c4cccnc4Cl)ccc23)CC1` [Example 17], the IC50 amounted to 5 nM in series [1], 274 nM in series [2], 71 nM in series [3] and 5 nM in series [5].
Consider `Cn1cnnc1C1(F)CCN(c2c(C#N)ccnc2-c2cnn3nc(-c4cc(Cl)ccc4C#N)ccc23)CC1` [Example 18], for which the IC50 in series [1] worked out at 1 nM; in series [2], 44 nM; in series [3] it was 16 nM; in series [5], 2 nM.
As to `Cc1ccccc1-c1ccc2c(-c3nccc(C#N)c3N3CCC(F)(c4nncn4C)CC3)cnn2n1` [Example 19], the figures for the IC50 in series [2] and in series [3] were 20 nM and 6 nM, respectively.
`Cn1cnnc1C1(F)CCN(c2c(C#N)ccnc2-c2cnn3nc(-c4ccc(Cl)cc4Cl)ccc23)CC1` [Example 20]: the IC50 in series [1] turned out to be 3 nM; in series [2], 83 nM; in series [3], 29 nM; in series [5], 2 nM.
As for `Cn1cnnc1C1(F)CCN(c2c(C#N)ccnc2-c2cnn3nc(-c4c(F)cccc4F)ccc23)CC1` [Example 21], the IC50 in series [1] was 1 nM; in series [2], 16 nM; in series [3], 11 nM; in series [5], 2 nM.
`Cn1cnnc1C1(F)CCN(c2c(C#N)ccnc2-c2cnn3nc(-c4ccccc4C#N)ccc23)CC1` [Example 22]: the IC50 in series [1] was 2 nM; in series [2] it was 117 nM; in series [3], 51 nM; in series [5], 2 nM.
With `COc1ccc(-c2ccc3c(-c4nccc(C#N)c4N4CCC(F)(c5nncn5C)CC4)cnn3n2)c(F)c1` [Example 23], the IC50 in series [1] was 4 nM; in series [2] it was 158 nM; in series [3], 46 nM; in series [5], 4 nM.
In the case of `Cc1noc(C)c1-c1ccc2c(-c3nccc(C#N)c3N3CCC(F)(c4nncn4C)CC3)cnn2n1` [Example 24], the IC50 in series [1] came to 8 nM; in series [2], 981 nM; in series [3] it was 184 nM; in series [5], 14 nM. Moreover, in series [4], the efflux ratio is 4.6. The Papp A→B in series [4] turned out to be 16 ×10⁻⁶ cm/s.
`Cn1cnnc1C1(F)CCN(c2c(C#N)ccnc2-c2cnn3nc(-c4cccc(Cl)c4)ccc23)CC1` [Example 28]: the IC50 in series [2] stood at 70 nM; in series [3] it was 53 nM. The Papp A→B in series [4] worked out at 28 ×10⁻⁶ cm/s.
For `Cc1ccc(-c2ccc3c(-c4nccc(C#N)c4N4CCC(F)(c5nncn5C)CC4)cnn3n2)c(C)c1` [Example 32], the IC50 in series [2] was 72 nM; in series [3], 21 nM. The Papp A→B in series [4] came out at 60 ×10⁻⁶ cm/s.
`Cn1cnnc1C1CCN(c2ncccc2-c2ccc(F)nc2)CC1` [SEN177, reference compound]: the IC50 in series [2] was 1360 nM; in series [3], 214 nM.

The values above are taken from patent US20250059165A1, “PIPERIDINYLPYRIDINYLCARBONITRILE DERIVATIVES AS INHIBITORS OF GLUTAMINYL-PEPTIDE CYCLOTRANSFERASE AND GLUTAMINYL-PEPTIDE CYCLOTRANSFERASE LIKE PROTEIN” (Boehringer Ingelheim International GmbH, priority 2023, published 2025).
